Literature values, collected in patent US5986061A (priority 1995, dated 1999).

T1: Hu-IFN-α/β receptor on bovine MDBK cells (Bos taurus, UniProt Q04790+Q95141)
T1 construct: endogenous in cells; host or cells: MDBK
T1 sequence (Q04790 25-560): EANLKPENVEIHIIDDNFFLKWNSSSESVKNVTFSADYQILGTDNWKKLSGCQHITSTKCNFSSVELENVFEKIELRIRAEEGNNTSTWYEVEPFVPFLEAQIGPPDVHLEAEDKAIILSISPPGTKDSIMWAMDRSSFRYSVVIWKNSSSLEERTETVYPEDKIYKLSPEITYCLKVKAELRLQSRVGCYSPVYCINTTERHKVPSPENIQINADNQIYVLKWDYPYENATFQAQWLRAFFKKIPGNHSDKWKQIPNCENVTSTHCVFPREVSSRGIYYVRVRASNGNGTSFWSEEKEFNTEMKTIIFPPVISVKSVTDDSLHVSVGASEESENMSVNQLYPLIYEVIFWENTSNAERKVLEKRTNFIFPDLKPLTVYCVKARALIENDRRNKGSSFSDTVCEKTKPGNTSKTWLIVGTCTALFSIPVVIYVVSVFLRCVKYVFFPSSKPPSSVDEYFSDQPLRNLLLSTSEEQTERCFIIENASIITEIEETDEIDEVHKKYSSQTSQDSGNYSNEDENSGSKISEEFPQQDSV
T1 sequence (Q95141 27-530): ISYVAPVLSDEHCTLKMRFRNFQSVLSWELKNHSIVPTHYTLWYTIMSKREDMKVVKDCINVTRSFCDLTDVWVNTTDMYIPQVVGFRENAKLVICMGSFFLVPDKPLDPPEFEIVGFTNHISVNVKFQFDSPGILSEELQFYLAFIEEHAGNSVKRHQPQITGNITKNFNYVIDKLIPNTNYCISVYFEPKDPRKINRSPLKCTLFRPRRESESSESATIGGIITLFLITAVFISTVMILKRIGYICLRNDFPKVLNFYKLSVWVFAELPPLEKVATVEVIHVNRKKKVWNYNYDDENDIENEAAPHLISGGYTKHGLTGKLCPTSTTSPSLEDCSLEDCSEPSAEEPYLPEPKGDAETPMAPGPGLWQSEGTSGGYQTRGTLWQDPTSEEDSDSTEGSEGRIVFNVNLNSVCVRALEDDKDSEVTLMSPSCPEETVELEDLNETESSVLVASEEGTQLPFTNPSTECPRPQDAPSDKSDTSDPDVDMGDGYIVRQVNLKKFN

B1: Hu-IFN-gamma: human immune (gamma) interferon (protein, UniProt P01579 24-161, looked up)
Interferon gamma: QDPYVKEAENLKKYFNAGHSDVADNGTLFLGILKNWKEESDRKIMQSQIVSFYFKLFKNFKDDQSIQKSVETIKEDMNVKFFNSNKKKRDDFEKLTNYSVTDLNVQRKAIHELIQVMAELSPAAKTGKRKRSQMLFRG

Columns and labels:
[1] = system: vesicular stomatitis virus and bovine MDBK cells; details: literature (16, 28, 63); cited from earlier work
[2] = target: T1, Hu-IFN-α/β receptor on bovine MDBK cells; details: literature (16, 28, 63); cited from earlier work

Molecule	antiviral activity on MDBK cell line [1]	binding to MDBK cell line [2]
Hu-IFN-gamma: human immune (gamma) interferon	does not	
B1		does not
